SMILES strings stand for the structures. Some results are limits rather than exact numbers.

One may read the Ki as the dissociation constant of the complex between target and ligand, obtained from inhibition or displacement.

The target of the first test is T1, human FAAH (Homo sapiens, UniProt O00519).
T1 construct: host or cells: COS-7 cells, transient transfection; 13,000 g membrane fraction solubilised in 1% Triton X-100
T1 sequence (O00519 1-579): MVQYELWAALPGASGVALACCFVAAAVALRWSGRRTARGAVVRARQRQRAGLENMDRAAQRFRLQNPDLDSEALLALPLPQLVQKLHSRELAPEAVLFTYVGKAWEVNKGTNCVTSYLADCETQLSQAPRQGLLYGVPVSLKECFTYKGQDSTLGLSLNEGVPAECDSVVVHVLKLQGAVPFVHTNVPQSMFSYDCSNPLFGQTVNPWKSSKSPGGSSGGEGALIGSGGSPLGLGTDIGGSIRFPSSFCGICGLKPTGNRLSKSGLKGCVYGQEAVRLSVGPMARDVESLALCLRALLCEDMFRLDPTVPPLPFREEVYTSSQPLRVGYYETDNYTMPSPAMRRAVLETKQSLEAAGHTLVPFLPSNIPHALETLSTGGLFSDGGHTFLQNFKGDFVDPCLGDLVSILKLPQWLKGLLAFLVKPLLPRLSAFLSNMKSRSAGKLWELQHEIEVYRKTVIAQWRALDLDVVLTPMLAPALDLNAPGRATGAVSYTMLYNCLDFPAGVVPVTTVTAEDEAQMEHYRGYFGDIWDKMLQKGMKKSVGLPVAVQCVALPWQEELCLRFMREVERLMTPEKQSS
The experiment in a line: Human FAAH biochemical inhibition assay (AMC arachidonoyl amide fluorescence). Particulars: Table 1, human FAAH (no asterisk); read-out: Activity (Ki). As for the experimental part: The resulting solution is added into one dish of 30-40% confluent COS-7 cells in a drop-wise manner. The COS-7 cell dish is subsequently incubated for 48 hours. The cells are then harvested.
Harvest procedure: Media was aspirated from the dishes and the cells rinsed with 10 mL PBS. The PBS was removed and 3 mLs of PBS added to the dish. The dish was scraped to resuspend the cells, and the subsequent cell suspension collected into a 15 ml conical tube. The cells were pelleted by centrifugation at 1200 rpm for 5 minutes in a bench top centrifuge. PBS was removed and the cell pellet snap frozen in liquid nitrogen, store at −80 C.
The pellets were dounce homogenized and then sonicated to produce cell extract. The cell extract was subsequently centrifuged at 1000 g to remove cellular debris. The pellet was discarded and the supernatant centrifuged at 13,000 g for 20 minutes. The pellet contained membrane bound FAAH. The supernatant was discarded and the pellet resolubilized.
(2) Re-solubilization: The fraction of interest, (13,000 g, membrane fraction) was re-suspended in re-suspension buffer (20 mM Hepes pH 7.8, 10% v/v Glycerol, 1 mM EDTA, 1% Triton X-100) (2.3 mL re-suspension and the sample incubated on ice for 1 hour and then centrifuged to at 13,000 g remove any particulate matter. The supernatant containing solubilized human FAAH was aliquoted and snap frozen in liquid nitrogen and stored at −80° C. until use.
FAAH reaction buffer: 50 mM Hepes (pH 7.5), 1 mM EDTA, 0.2% Triton X-100.
Human FAAH assay; Experimental Protocol: A 0.1 mg/mL Human FAAH solution is made up in FAAH reaction buffer, and 24 ul pipetted into a 384 well plate. To this is added 1 uL of a 3 fold serially diluted inhibitor from a DMSO stock solution. The FAAH solution and inhibitor are incubated for 30 minutes at room temperature. The FAAH reaction is initiated by the addition of 25 uL of 40 uM AMC Arachidonoyl Amide in FAAH reaction buffer, yielding a final reaction human FAAH preparation concentration of 0.05 mg/ml and AMC-Arachidonoyl substrate concentration of 20 uM, reaction volume 50 uL. The reaction is allowed to proceed for 4 hours at room temperature. […] The microtiter plate in read in the envision plate reader.
`O=C(NCc1ccco1)c1ccc(B(O)O)cc1` [Compound I-167]: the Ki is 10 to 100 nM.
Same read-out and setting: with `OB(O)c1ccc(OCc2cccc(Cl)c2)c(Cl)c1` [Compound I-154] the figure was < 10 nM; with `OB(O)c1ccc2cc[nH]c2c1` [Compound I-101], > 1000 nM; with `CC(C)c1ccc(B(O)O)cc1` [Compound I-95], 10 to 100 nM.
For the compound `OB(O)c1ccc(OC2CCCCO2)cc1` (stereo not drawn) [Compound I-158], the Ki was 10 to 100 nM.
Take `CC(C)(C)OC(=O)n1c(B(O)O)cc2ccccc21` [Compound I-133]: the inhibition constant (Ki) is > 1000 nM.
As to `OB(O)c1ccc2c(c1)Oc1ccccc1S2` [Compound I-159], the Ki was > 1000 nM.
Turning to `OB(O)c1cc(Br)cc(Br)c1` [Compound I-23], the Ki lay in the range of 10 to 1000 nM.
`OB(O)c1cc2ccccc2c2ccccc12` [Compound I-183]: the Ki was > 1000 nM.
`OB(O)c1cccc(F)c1` [Compound I-71]: the Ki was > 1000 nM.
Regarding `Cc1cccc(B(O)O)c1` [Compound I-79], the Ki was > 1000 nM.
For `O=[N+]([O-])c1ccccc1B(O)O` [Compound I-66], the Ki is > 1000 nM.
In the case of `CCOc1ccc2cc(B(O)O)ccc2c1` [Compound I-52], the Ki was < 10 nM.
On to `COc1ccc2cc(B(O)O)ccc2c1` [Compound I-184], for which the Ki was 10 to 100 nM.
For the compound `COc1ccc(CNS(=O)(=O)c2ccc(B(O)O)cc2)cc1` [Compound I-120], the Ki is 10 to 100 nM.
Take `OB(O)c1cccc(Br)c1` [Compound I-29]: the Ki lay in the range of 10 to 100 nM.
On to `OB(O)c1csc2ccccc12` [Compound I-197], for which the Ki was 10 to 100 nM.
As for `Cc1cc(F)cc(B(O)O)c1` [Compound I-14], the Ki fell in the range of 10 to 1000 nM.
`CCCOc1ccc(B(O)O)cc1` [Compound I-60]: the inhibitory constant (Ki) was 10 to 100 nM.
For the compound `OB(O)c1cc(F)cc(F)c1` [Compound I-24], the Ki lay in the range of 10 to 1000 nM.
On to `O=Cc1ccc(B(O)O)c2ccccc12` [Compound I-104], for which the Ki is 10 to 1000 nM.
Regarding `OB(O)c1ccc(-c2ccccc2)c(F)c1` [Compound I-194], the Ki is < 10 nM.
With `COc1ccc(CN(Cc2ccccc2)S(=O)(=O)c2ccc(B(O)O)cc2)cc1` [Compound I-118], the Ki lay within 10 to 1000 nM.
`CC1(C)OB(c2cccc3cc[nH]c23)OC1(C)C` [Compound I-3]: the Ki was > 1000 nM.
The same measure, in the same setting: the value for `OB(O)c1ccc(-c2cccs2)cc1` [Compound I-31] was 10 to 100 nM; that for `OB(O)c1ccc2cc(OCc3ccccc3)ccc2c1` [Compound I-56] was < 10 nM; that for `OB(O)c1ccc2nccn2c1` [Compound I-109] was > 1000 nM.
Regarding `CCOc1c(Br)cc(F)cc1B(O)O` [Compound I-9], the inhibitory constant (Ki) lay within 10 to 1000 nM.
For `Cc1cc(Br)cc(B(O)O)c1` [Compound I-25], the Ki lay within 10 to 1000 nM.
Turning to `OB1OCCc2ccccc21` [Compound I-99], the inhibition constant Ki is > 1000 nM.
As for `OB(O)c1cnc2ccccc2c1` [Compound I-65], the inhibitory constant (Ki) is > 1000 nM.
For the compound `OB(O)c1ccccc1` [Compound I-107], the Ki is > 1000 nM.
Turning to `O=C(OCc1ccccc1)c1ccc(B(O)O)cc1` [Compound I-173], the inhibition constant Ki is < 10 nM.
On to `OB(O)c1cccc2ccccc12` [Compound I-111], for which the Ki lay within 10 to 1000 nM.
Same read-out and setting: with `OB(O)c1cccc(OCc2ccccc2Cl)c1` [Compound I-140] the figure was 10 to 100 nM.

The same test, now with this note: Table 2, human FAAH (no asterisk); read-out: Activity (Ki).
With `Cc1ccc(Oc2ccc(B(O)O)cc2)cc1F` [II-272], the Ki is < 10 nM.
The same measure, in the same setting: the value for `OB(O)c1ccc(COCc2ccc(C(F)(F)F)cc2)cc1F` [II-71] was < 10 nM.
Still for that read-out and setting: with `OB(O)c1cccc(CCOc2ccccc2)c1` [II-121] the figure was 10 to 100 nM; with `OB(O)c1ccc(Oc2cccc(N3CCCC3)c2)cc1F` [II-197], 10 to 100 nM; with `OB(O)c1ccc(Oc2cc(Cl)cc(Cl)c2)cc1` [II-258], 10 to 100 nM.
As for `COc1cccc2c(C(O)O)coc12` [II-38], the inhibitory constant (Ki) is > 1000 nM.
`OB(O)c1ccc(Oc2cccc(OC(F)(F)F)c2)cc1F` [II-212]: the Ki was < 10 nM.
On to `OB(O)c1ccc(Oc2cccc(N3CCCCC3)c2)cc1F` [II-196], for which the Ki is > 1000 nM.
Take `Cc1ccc(Oc2ccc(B(O)O)cc2)cc1C` [II-277]: the Ki is < 10 nM.
Turning to `Cc1nc2cc(B(O)O)ccc2s1` [II-42], the Ki fell in the range of 10 to 1000 nM.
Same read-out and setting: with `COc1cccc(Oc2ccc(B(O)O)c(F)c2)c1` [II-206] the figure was < 10 nM; with `OB(O)c1ccc(/C=C\c2ccccc2)cc1` [II-189], > 1000 nM; with `OB(O)c1ccc(OCc2cncs2)cc1F` [II-159], 10 to 100 nM.
The same measure, in the same setting: the value for `OB(O)c1ccc(OCCc2ccccc2)cc1` [II-167] was < 10 nM.
Same read-out and setting: the value for `CC(Oc1ccc(B(O)O)cc1)c1ccccc1` (stereo not drawn) [II-238] was 10 to 100 nM; that for `O=C(c1ccccc1)c1cc2cc(B(O)O)ccc2o1` [II-15] was 10 to 100 nM.
Regarding `Cc1cc(B(O)O)cc(C)c1Oc1cccc(F)c1` [II-283], the Ki fell in the range of 10 to 100 nM.
Regarding `COc1cccc(CCOc2ccc(B(O)O)c(F)c2)c1` [II-51], the Ki is < 10 nM.
Turning to `O=C(CCCCc1ccccc1)Nc1cccc(CCOc2ccc(B(O)O)c(F)c2)c1` [II-19], the inhibition constant (Ki) is < 10 nM.
Still for that read-out and setting: the value for `CCCOc1ccc(Oc2ccc(B(O)O)cc2)cc1F` [II-273] was < 10 nM.
On the same count and under the same terms, the value for `C[C@@H](NC(=O)c1ccc(B(O)O)cc1)c1ccccc1` [II-171] was 10 to 100 nM; that for `OB(O)c1csc2c(Cl)cccc12` [II-23] was 10 to 100 nM; that for `OB(O)c1ccc(OCCOc2ccccc2)cc1` [II-129] was < 10 nM.
As for `Cn1ccc2cc(B(O)O)ccc21` [II-125], the Ki was > 1000 nM.
On the same count and under the same terms, the value for `OB(O)c1ccc(CNc2ccccc2)cc1` [II-152] was < 10 nM; that for `NC(=O)c1cccc(-c2cccc(B(O)O)c2)c1` [II-303] was > 1000 nM.
Consider `COc1ccc(Oc2ccc(B(O)O)cc2)cc1F` [II-255], for which the inhibition constant Ki was < 10 nM.
For the compound `CC1(C)OB(c2ccc(OCc3ccn[nH]3)cc2F)OC1(C)C` [II-147], the Ki was 10 to 100 nM.
With `CC1(C)OB(c2ccc(CN(Cc3ccccc3)Cc3ccccc3)cc2)OC1(C)C` [II-178], the Ki is > 1000 nM.
Turning to `CN(C)c1cc(Oc2ccc(B(O)O)cc2)cc(Oc2cccc(F)c2)c1` [II-180], the Ki was > 1000 nM.
Regarding `OB(O)c1ccc(OCCc2ccncc2)cc1F` [II-110], the Ki was < 10 nM.
On to `Cc1ccc2ccc(B(O)O)c(F)c2n1` [II-60], for which the Ki is > 1000 nM.
As for `Nc1ccc(Oc2ccc(B(O)O)cc2)cc1` [II-286], the Ki is 10 to 100 nM.
Regarding `OB(O)c1ccc(OC[C@@H](COCc2ccccc2)OCc2ccccc2)cc1F` [II-108], the Ki lay in the range of 10 to 100 nM.
Consider `OB(O)c1ccc(Oc2ccc(Cl)c(C(F)(F)F)c2)cc1` [II-257], for which the Ki is < 10 nM.
Turning to `OB(O)c1ccc(COCC2CCCCC2)cc1` [II-100], the Ki was 10 to 100 nM.
`CCCCOc1ccc(Oc2ccc(B(O)O)cc2)cc1F` [II-271]: the Ki is < 10 nM.
As to `OB(O)c1cnn(Cc2ccccc2)c1` [II-302], the Ki was > 1000 nM.
Turning to `CC1(C)OB(c2ccc(Oc3cccnc3)cc2F)OC1(C)C` [II-150], the Ki is < 10 nM.
As for `O=C(N[C@@H](COc1ccc(B(O)O)c(F)c1)Cc1ccccc1)c1ccccc1` [II-105], the inhibition constant (Ki) was 10 to 1000 nM.
Still for that read-out and setting: with `CC1(C)OB(c2ccc(OCc3cncs3)cc2F)OC1(C)C` [II-174] the figure was < 10 nM; with `CC1(C)OB(c2ccc(OCCc3ccccc3)cc2)OC1(C)C` [II-168], 10 to 100 nM.
For the compound `CC1(C)OB(c2ccc(Cn3ccc4ccccc43)cc2)OC1(C)C` [II-153], the Ki was < 10 nM.

The values above are taken from patent US8329675B2, “Inhibitors of fatty acid amide hydrolase” (Infinity Pharmaceuticals, Inc., priority 2006, dated 2012).
